In PubChem BioAssay AID328 (DTP/NCI, 2004):
Values joined by “and” are separate entries in the source; they are usually repeats but may differ in a detail not shown here. Equal entries are not always repeated. Toxic doses and inconclusive results are not listed.

System: BDF1 mice, P388 leukemia ip, median survival T/C
Assay: NCI In Vivo Anticancer Drug Screen. Data for tumor model P388 Leukemia (intraperitoneal) in B6D2F1 (BDF1) mice
Details: endpoint: median survival time, higher = longer survival
Method in brief: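 Steps: implant the tumour, treat one group with compound and another with vehicle, record survival, then divide treated by control.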

[1] = dose: 50.0 mg/kg/injection, schedule: Q01DX009 (ip), vehicle: saline with Tween-80
[2] = dose: 100.0 mg/kg/injection, schedule: Q01DX009 (ip), vehicle: saline with Tween-80
[3] = dose: 200.0 mg/kg/injection, schedule: Q01DX009 (ip), vehicle: saline with Tween-80
[4] = dose: 12.5 mg/kg/injection, schedule: Q01DX010 (sc), vehicle: steriod suspending solution
[5] = dose: 25.0 mg/kg/injection, schedule: Q01DX010 (sc), vehicle: steriod suspending solution
[6] = dose: 50.0 mg/kg/injection, schedule: Q01DX010 (sc), vehicle: steriod suspending solution
[7] = dose: 100.0 mg/kg/injection, schedule: Q01DX010 (sc), vehicle: steriod suspending solution

For `N#Cc1c(N)sc2c1CCCC2`, the T/C (dose: 100.0 mg/kg/injection, schedule: Q01DX009 (ip), vehicle: saline) was 109 % of control, the T/C (dose: 200.0 mg/kg/injection, schedule: Q01DX009 (ip), vehicle: saline) was 109 % of control and the T/C (dose: 400.0 mg/kg/injection, schedule: Q01DX009 (ip), vehicle: saline) was 104 % of control.
`COC(=O)C(CC(O)c1ccccc1)N1CCOCC1` (stereo not drawn) was tested, and the T/C (dose: 100.0 mg/kg/injection, schedule: Q01DX001 (ip), vehicle: saline with Tween-80) was 100 % of control, the T/C (dose: 200.0 mg/kg/injection, schedule: Q01DX001 (ip), vehicle: saline with Tween-80) was 100 % of control and the T/C (dose: 400.0 mg/kg/injection, schedule: Q01DX001 (ip), vehicle: saline with Tween-80) was 100 % of control.
For `S=C(Cc1ccccc1)N1CCN(c2ccc(Cl)cc2)CC1`, the T/C [1] was 104 % of control, the T/C [2] was 100 % of control and the T/C [3] was 100 % of control.
`CC(=O)O[C@]1(C(C)=O)CC[C@H]2[C@@H]3C[C@H](C)C4=CC(=O)C=C[C@]4(C)[C@@]3(F)[C@@H](O)C[C@@]21C` was tested, and the T/C [4] was 100 % of control and 108 % of control, the T/C [5] was 100 % of control and 112 % of control and the T/C [6] was 95 % of control and 112 % of control. For the same compound, the T/C [7] was 91 % of control and 104 % of control.
With `CC(NC(=O)OCc1ccccc1)C(=O)NC(CC(=O)O)C(=O)O` (stereo not drawn) the T/C (dose: 25.0 mg/kg/injection, schedule: Q04DX003 (ip), vehicle: saline) was 100 % of control, the T/C (dose: 50.0 mg/kg/injection, schedule: Q04DX003 (ip), vehicle: saline) was 100 % of control and the T/C (dose: 100.0 mg/kg/injection, schedule: Q04DX003 (ip), vehicle: saline) was 110 % of control.
For `O=C(NC1CCCCC1)N(C(=O)C(F)(F)F)C1CCCCC1`, the T/C [1] was 97 % of control, the T/C [2] was 93 % of control and the T/C [3] was 93 % of control.
In the case of `O=C1CC(=O)N(c2ccccc2)C(=O)N1`, the T/C [2] is reported as 94 % of control, the T/C [3] is reported as 88 % of control and the T/C (dose: 400.0 mg/kg/injection, schedule: Q01DX009 (ip), vehicle: saline with Tween-80) is reported as 106 % of control.
With `CCCn1c(=S)[nH]c2ccccc2c1=O` the T/C (dose: 100.0 mg/kg/injection, schedule: Q01DX001 (ip), vehicle: Klucel (hydroxypropylcellulose) (HPC)) was 100 % of control, the T/C (dose: 200.0 mg/kg/injection, schedule: Q01DX001 (ip), vehicle: Klucel (hydroxypropylcellulose) (HPC)) was 100 % of control and the T/C (dose: 400.0 mg/kg/injection, schedule: Q01DX001 (ip), vehicle: Klucel (hydroxypropylcellulose) (HPC)) was 100 % of control.
In the case of `COc1ccc(CC2C(=O)NC(C)C(=O)N(C)C3C(=O)N(C)C(Cc4ccc(O)c(c4)Oc4ccc(cc4)C3O)C(=O)NC(C)C(=O)NC(C)C(=O)N2C)cc1` (stereo not drawn) (tested in a mixture with another compound), the T/C (dose: 0.5 mg/kg/injection, schedule: Q01DX009 (ip), vehicle: alcohol) is reported as 179 % of control, the T/C (dose: 0.5 mg/kg/injection, schedule: Q01DX009 (ip), vehicle: carboxymethylcellulose (CMC)) is reported as 207 % of control and the T/C (dose: 1.0 mg/kg/injection, schedule: Q01DX009 (ip), vehicle: alcohol) is reported as 158 % of control. The T/C (dose: 1.0 mg/kg/injection, schedule: Q01DX009 (ip), vehicle: carboxymethylcellulose (CMC)) was 182 % of control, the T/C (dose: 2.0 mg/kg/injection, schedule: Q01DX009 (ip), vehicle: alcohol) was 208 % of control and the T/C (dose: 2.0 mg/kg/injection, schedule: Q01DX009 (ip), vehicle: carboxymethylcellulose (CMC)) was 207 % of control.
`O=C(NCCNC(=O)c1cccnc1)c1ccncc1` was tested, and the T/C (dose: 100.0 mg/kg/injection, schedule: Q01DX001 (ip), vehicle: saline) was 90 % of control, the T/C (dose: 200.0 mg/kg/injection, schedule: Q01DX001 (ip), vehicle: saline) was 90 % of control and the T/C (dose: 400.0 mg/kg/injection, schedule: Q01DX001 (ip), vehicle: saline) was 90 % of control.
For `C[C@]12CCC(=O)C=C1CC[C@@H]1[C@@H]2[C@@H](O)C[C@@]2(C)[C@H]1CC[C@]2(O)C(=O)CO`, the T/C (dose: 6.25 mg/kg/injection, schedule: Q01DX010 (sc), vehicle: steriod suspending solution) was 100 % of control, the T/C [4] was 100 % of control and the T/C [5] was 110 % of control. The T/C [6] was 120 % of control, the T/C [7] was 115 % of control and 120 % of control and the T/C (dose: 200.0 mg/kg/injection, schedule: Q01DX010 (sc), vehicle: steriod suspending solution) was 110 % of control.
`O=C(O)/C=C/c1ccc(-c2cc(C(F)(F)F)cc(C(F)(F)F)c2)o1` was tested, and the T/C [1] was 108 % of control, the T/C [2] was 90 % of control and the T/C [3] was 106 % of control.
